Measured values reported in ChEMBL document CHEMBL3507680, “University of Dundee, Gates Library screen for HepG2 cell viability”.

experiment: Human HepG2 cell viability assay in 384 well format; assay type: toxicity, cell-based; design: dose 125 nL, time 70.5 hour; cytotoxicity at 70.5 h: concentration not given beside the values; settings: HepG2 cells, read-out: Inhibition

SMILES	cytotoxicity at 70.5 h
CCC(C)(C)NC(=O)c1scnc1Cl	12.7%
COCC1CN(Cc2ccoc2)Cc2nn(C)cc21 (centres undefined)	-2.22%
O=C(NC1CC1)[C@@H]1CN(Cc2ccc3c(c2)OCO3)C[C@H]2OCC[C@H]21	-1.06%
CCc1cccc(N2CCC(NC(=O)c3cc[nH]n3)CC2)c1	31.2%
COCCCC1CCCN(Cc2c(C)ccc3ncccc23)C1 (centres undefined)	6.57%
Cc1cs/c(=N\C(=O)Cn2nc(N3CCSCC3)ccc2=O)[nH]1	-13.2%
O=C(Cc1ccc(F)cc1)NCC(O)(c1cccs1)C1CC1 (centres undefined)	13.2%
CN(C)CCN1CCCC12CCN(C(=O)c1cnccn1)CC2	6.16%
COc1cc2c(nn1)CCN(CC(O)COc1ccc(C#N)cc1)C2 (centres undefined)	17.8%
O=C1NCC(c2ccc(F)cc2)Cc2[nH]c(CCN3CCCC3)nc21 (centres undefined)	-20.9%
COCCCN1CCCN(C(C)C(=O)Nc2cccc(I)c2)CC1 (centres undefined)	21.2%
O=C(NCc1nnc2n1CCC2)c1cn(-c2ccccc2Br)nn1	-2.93%
Cn1cc(C2CCCN2C(=O)CCCOc2ccc(F)cc2)cn1 (centres undefined)	15.6%
O=C(Cc1cccs1)N1C[C@@H]2CN(Cc3ccoc3)CCO[C@@H]2C1	-15.2%
CCN(Cc1nccn1C)C(=O)c1ccc(NCc2cnn(C)c2)nc1	-3.96%
CN(C)c1cc(CNC(=O)Nc2cccnc2N2CCCC2)ccn1	-2.03%
CN1CC2(CCN(C(=O)c3ccc(=O)n(C)c3)CC2)CC1=O	18.9%
Cn1ncnc1NCc1ccc(Cl)cc1	-9.65%
Cc1nnc(CCNC2CCN(c3ncnc4c(C)csc34)CC2)s1	-2.85%
CCN(CC)Cc1ccccc1NC(=O)N(C)Cc1ccc(OC)cc1	-15.6%
CCNC(=O)CNS(=O)(=O)Cc1cc(-c2ccccc2)no1	2.55%
OC(COCc1ccccc1)CN1CCC(c2ccn[nH]2)CC1 (centres undefined)	19.6%
Cc1noc(C)c1C(=O)N1C[C@@H]2CN(Cc3cccnc3)CCO[C@@H]2C1	-7.03%

SMILES	cytotoxicity at 70.5 h
O=c1[nH]c(-c2ccncc2)ncc1-c1ccnc(NC2CCCCC2)n1	18.2%
CNc1nc2c(s1)C(c1ccccc1Cl)CC(=O)N2 (centres undefined)	-21.9%
O=c1cnc2ccccc2n1CCCn1cccn1	24.6%
Cc1[nH]c2ccccc2c1-c1ccnc(N[C@H](CO)CC(C)C)n1	-2.73%
Cc1nc(C2(NCc3cc(C#N)ccc3F)CCCCC2)no1	-17.2%
c1cnc(NCC2Cn3nnc(-c4ccoc4)c3CO2)nc1 (centres undefined)	-13.1%
CC(C)NCC1OCCc2cn(C)nc21 (centres undefined)	-6.64%
Cc1c(CN2Cc3nccn3CC2c2ccccc2)cnn1C (centres undefined)	-4.09%
CC(C)n1nnnc1-c1ccc(NC(=O)C(C)(C)C#N)cc1F	4.99%
COCCS(=O)(=O)Nc1cc(Cl)ccn1	14.3%
Cc1cc(C2CCCN2Cc2nc3ccccc3o2)on1 (centres undefined)	1.19%
Cc1noc(C(C)Nc2ccc3oc(=O)[nH]c3c2)n1 (centres undefined)	-0.467%
Cc1ccc2nc(CNCCCOc3ccccc3)cc(O)c2c1 [UCSF924]	-2.02%
Cc1nsc(NC(=O)N2CCN(Cc3ccc(F)cc3)C(=O)C2)n1	-13.5%
CCn1ccnc1CN1CCN(CCc2ccccn2)CC1C (centres undefined)	-3.46%
COc1ccc(F)c(F)c1CN1CCN(CC(C)C)C(=O)C1C (centres undefined)	25%
COc1cc(CN2CCCCCC2c2cccs2)cc(OC)c1OC (centres undefined)	-9.84%
CC(=O)N1N=C(COc2ccc3c(c2)OCO3)OC1c1cccc(Cl)c1 (centres undefined)	-2.04%
CCS(=O)(=O)c1ccc(N2CCC(NC(=O)CCC(C)C)CC2)cc1	-9.09%
OCc1c(Cl)ncn1-c1ccccc1	0.513%
O=C(Nc1cccnn1)NC(CCCO)c1ccccc1 (centres undefined)	-14.5%
Clc1cc(CN2CCCC2Cn2cncn2)c2ncccc2c1 (centres undefined)	-20.8%
N#Cc1cn[nH]c1NCc1cc(Br)ccc1O	-9.76%

SMILES	cytotoxicity at 70.5 h
CCc1nnc2n1CCN(C(=O)CN(C)C1CC1)C2	-0.0438%
CN(Cc1ccccc1)S(=O)(=O)N1C[C@@H](C(=O)O)[C@H](C2CC2)C1	-6.58%
Cc1ccc(NC(=O)NCC2(O)CCCC2)cc1C	-1.58%
O=C(O)c1cc(-n2cc3c(n2)CCC3)cc(S(=O)(=O)N2CCOCC2)c1	3.53%
CC[C@@H](C)[C@@H](N)C(=O)Nc1cccc(-c2cnc(N(C)C)nc2)c1	-4.42%
CCc1cc(NCCC(F)(F)F)nc(N2CCOCC2)n1	-7.87%
COCCC(=O)N1CC[C@H]2O[C@@H](C)C[C@H]2C1	-7.16%
CN(C)CCNCC1(O)CCCN(Cc2cccc(F)c2F)C1=O (centres undefined)	16.1%
CN(CC1(CO)CCCC1)c1nc2c(c(=O)[nH]1)Cc1ccccc1OC2	-10%
O=C(COC[C@@]12CCC[C@@H]1CN(C1CCCC1)C2)N1CCCC1	-1.08%
CN(C)c1ncc2c(c1C(=O)O)CCN(Cc1ccco1)C2	-4.04%
CN(C)c1cc(C2CCCN(C(=O)c3ccc(=O)[nH]n3)C2)ccn1 (centres undefined)	-1.67%
O=C(Cc1cccs1)N1CC[C@H]2[C@@H]1CCC(=O)N2c1cccnc1	2.43%
CNc1cc(C)nc(C2CN(Cc3cncs3)CCO2)c1 (centres undefined)	-11.5%
Cc1cc(CN2CCCC2)cc(Oc2ccc(C(F)(F)F)cn2)c1	-0.531%
Cc1cc(-c2cncnc2)ccc1OCC(N)=O	13.6%
NC(=O)C1CCN(C(=O)NCc2ccccc2Cn2cncn2)CC1	-3.83%
CC(C)C(N)CNS(=O)(=O)Cc1cccc2cccnc12 (centres undefined)	-7.49%
CCc1n[nH]c(C2CN(C(=O)c3ncoc3C(C)C)CCO2)n1 (centres undefined)	-9.85%
CCc1cc(=O)[nH]c(-c2ccc(NC(C)CN3CCOCC3)nc2)n1 (centres undefined)	-0.904%
CCc1csc(C2CCCN(C(=O)c3ccc(OC)nc3)C2)n1 (centres undefined)	-1.94%
c1cncc(-c2ccnn2CN2CCC3(CC2)OCCO3)c1	-5.34%
Cc1nccn1CCC1CCCCN1Cc1cccc(CCN)c1 (centres undefined)	-1.82%

SMILES	cytotoxicity at 70.5 h
CCN1CC2(CCCCN2C(=O)c2ccsc2)CC1=O (centres undefined)	2.62%
CNC(=O)C1Cn2ccnc2C2(CCN(Cc3cccc(C)n3)CC2)O1 (centres undefined)	0.339%
CCC[C@H]1CN(Cc2ccc(N(C)C)nc2)C[C@@H]1NC(=O)CO	-6.62%
CCn1nc(CC(C)C)cc1C(=O)N1CCCOC(CN2CCCC2)C1 (centres undefined)	-3.36%
COc1ccc(CCn2cnc(C#N)n2)cc1	-12.6%
CCOC(=O)COc1cccc(NC(=O)C2COCCO2)c1 (centres undefined)	-3.53%
COc1ncnc2c1CCN(Cc1cccc(C)n1)CC2	5.99%
CCOC(=O)c1n[nH]cc1CN1CCCC(N(C)Cc2ccccc2)C1 (centres undefined)	2.53%
CC(C)(C)C(O)CN1CCN(Cc2cccc(C#N)c2)CC1 (centres undefined)	14.7%
CCOC(=O)C1CCN(C(=O)c2cnn(-c3ccc(C)cc3)c2N)CC1	-5.44%
Cc1ccc(CN2CCOCC2)cc1NCc1ccsc1	-13.9%
N[C@@H]1CCC[C@@H](Oc2ccc(F)cc2Oc2ccccc2)[C@@H]1O	20.8%
Cc1cnc(C)c(N2CCC(C(=O)O)(n3ccc(C(C)(C)C)n3)CC2)n1	30.8%
Cc1cc(C(=O)N2CCCC(C(=O)c3cccs3)C2)c(=O)[nH]c1C (centres undefined)	17.8%
c1cnc(N2CCOC3(CCN(CC4CCOC4)CC3)C2)nc1 (centres undefined)	2.18%
CC(=O)NCc1cncc(C2CCCN2C2CCOCC2)n1 (centres undefined)	-5.7%
O[C@H]1[C@H](n2cc(CN3CCCC3)nn2)c2ccccc2C12CCNCC2	-7.31%
CN1CCN(c2ccccc2NC(=O)NCC[S+](C)[O-])CC1 (centres undefined)	-7.57%
Cn1cnnc1C1CCCN(C(=O)COCc2ccccc2)C1 (centres undefined)	-2.8%
Cc1nc(NC(=O)N2CCCC(C(F)(F)F)C2)nn1C (centres undefined)	-8%
CC(C)c1nnc(NCCS(C)(=O)=O)s1	-0.429%
Cc1ccc(C(CNC(=O)NCc2ccccn2)N2CCOCC2)o1 (centres undefined)	13.1%
CCCc1cnc(C)nc1N1CCC(Cc2ccc(CO)cc2)C1 (centres undefined)	-10.5%

SMILES	cytotoxicity at 70.5 h
N[C@H]1CN(C(=O)c2cnc3cc(Cl)ccc3c2O)C[C@@H]1C1CC1	5.93%
CNc1nc(CNC(=O)Nc2ccc(OC(C)C)cc2C)cs1	-2.53%
COC(=O)N1CCC(Oc2ccc(C(=O)NCCN(C)C)cc2Cl)CC1	-8.08%
Cc1cccc(CCC(=O)N2CCOCC2c2c(C)n[nH]c2C)c1 (centres undefined)	17.3%
Cc1cccc(NCCOc2cccc(C#N)c2)c1C(N)=O	16.4%
Cc1ccc(-c2nnc(C3CCCN3S(=O)(=O)c3cnn(C)c3C)o2)s1 (centres undefined)	2.03%
CC(C)c1nnc(NC(=O)NC2CCN(Cc3ccccc3)C2)s1 (centres undefined)	-2.21%
COc1ccccc1C(=O)N1CCOCC1c1c(C)n[nH]c1C (centres undefined)	-15.2%
CCn1cc(S(=O)(=O)NC(=O)CCc2c[nH]c3ccccc23)cn1	-0.706%
Cc1nnc(CN(C)CC2CCCCC2)o1	-11.8%
COCCN(C)C[C@H]1C[C@@H](CO)CN(C(=O)c2ccn(C)c(=O)c2)C1	-8.04%
c1ccc(-c2nnc(C3CCCN(CC4CCCCC4)C3)o2)nc1 (centres undefined)	-7.93%
Cn1nc(Br)nc1Sc1ccccc1NC(=O)C1CC1	1.89%
O=C(NCC1CCCO1)N1CCN(Cc2ccc3c(c2)CCO3)CC1 (centres undefined)	-9.76%
Cc1nc2c(c(=O)n1C)CN(C(=O)C1CCN(C(=O)C3CCC3)CC1)C2	-1.69%
CC1=N[C@@]2(CC[C@@H]3CN(CC(=O)N(C)C)C[C@@H]32)C(=O)N1CC(C)C	52.3%
CCCc1cc(C(=O)N2C[C@H]3CCC[C@@]3(CO)C2)[nH]n1	-7.84%
O=C(c1ccc(Cl)s1)N1CCCn2nc(CN3CC[C@H](F)C3)cc2C1	-10.2%
CCN(CC)C(=O)N1CCOCC1c1c(C)nn(C)c1C (centres undefined)	-10.5%
COc1ccccc1-c1cc(NC(=O)COCC2CC2)[nH]n1	-4.9%
CCN(CC)S(=O)(=O)c1ccc2c(c1)N(Cc1ccccn1)C(=O)CS2	-4.62%
CNC(=O)NC(=O)C(C)N1CCC(c2c[nH]c3ccc(OC)cc23)CC1 (centres undefined)	-2.98%
